Data set [1] relates to TPA-induced ear edema. The experiment in a line: TPA-induced ear edema model. It counts as in vivo, mouse. The settings on record: 0.01% single topical, TPA 0.01%, ear thickness 6 hours after TPA. The method, then:
Experiment: Three representative compounds, 5-(2-phenylethenyl)-2-1-propyl-1,3-benzenediol, as previously reported, a closely related stilbene derivative (WO 0142231) and compound 39B, a novel compound of the current invention, were assayed against the edema on female mice (Balb/c) aged 10-12 weeks, using 0.01% Calcitriol (a commercial standard) as a positive control. Phorbol-12-myristate-13-acetate (TPA) was used as the edema inducer. TPA and the test compounds were all dissolved in 100% ethanol and 20 μl applied on the right ear of the mouse with six mice per group. The TPA concentration used was 0.01% (w/v). Ear thickness was measured 6 hours after TPA treatment to determine if edema was decreased. In each experiment replicated groups of TPA treated mice were treated with either 5-(2-phenylethenyl)-2-1-propyl-1,3-benzenediol, Calcitriol, compound 39B or only ethanol, and the level of inhibition was obtained by measuring the thickness of the ear and expressing the difference in thickness of the treated ear from that of the ethanol treated ear, as a percentage.

Data set [2] relates to human PBMC. The experiment in a line: Proliferation of PHA-stimulated human PBMC (MTT). It counts as cell-based. The settings on record: for IC50: MTT after 48 hours. Here is the method: (§1) (a). Effect on proliferation and IFN-γ production of human peripheral blood mononuclear cells (PBMC) stimulated by phytochemagglutinin (PHA).
(§2) Experiment: PBMC were cultured with PHA and cultured with titrated concentrations of compounds or solvent, or media alone using standard cell culture techniques. The MTT assay was performed after 48 hours of culture. Supernatants were collected after 48 hours of culture and levels of IFN-γ were assayed by ELISA.

The test system of data set [3] is Human keratinocytes. The experiment in a line: Human keratinocyte proliferation (MTT). Format: cell-based. Particulars: for IC50: Homo sapiens, Keratinocyte, in the presence of IFN-γ, MTT after 48 hours. Here is the method: Human keratinocytes were cultured in the presence of IFN-γ and titrated concentrations of drug or the vehicle. The MTT assay was performed after 48 hours of culture.

The test system of data set [4] is IFN-γ. The experiment in a line: IFN-γ production by PHA-stimulated human PBMC (ELISA). Format: cell-based. Particulars: for IC50: PHA-stimulated human PBMC, supernatant after 48 hours, ELISA. The method, then: as §1, §2
On the technique in general: ELISA stands for enzyme-linked immunosorbent assay.

The test system of data set [5] is TNF-α. Nature of the data set: Endotoxemia mouse model, serum TNF-α after LPS. It counts as in vivo. Particulars: for TNF-α: serum 150 min after LPS 40 mg/kg IP, compounds 25 mg/kg then 3 x 12.5 mg/kg IP (dexamethasone 0.4 then 3 x 0.2 mg/kg). From the text: The in vivo endotoxemia model used in these studies represents a mouse showing the early inflammatory response. Such severe infection can be caused by Gram negative bacteria may lead to the development of septic shock. This toxicity is caused by the lipopolysaccharide (LPS) component of the bacterial cell wall, and injection of LPS into mice can mimic the physiological response typical of the septic shock syndrome. LPS-mediated toxicity is due to the release of cytokines such as TNF-α, IL-1 and IFN-γ by activated macrophages, and the degree of toxicity can be measured by the level of these cytokines in the blood.
Experiment: Test compounds were dissolved and formulated in 50% PEG-400 in water. Female Balb/c mice (˜20 g) were first injected separately intraperitoneally (IP) with 25 mg/kg of each test compound, then challenged by injection with 40 mg/kg lipopolysaccharide (LPS) (IP) 30 minutes later. One drug injection with 12.5 mg/kg of test compound was done at the same time as (LPS challenge and two subsequent sequential injections at 30 minutes intervals. Positive control of dexamethasone was administered in a similar manner starting at 0.4 mg/kg and subsequently 0.2 mg/kg for three additional injections. Mice were sacrificed and blood collected by cardiac puncture 150 minutes after LPS challenge. The serum TNF-α levels were determined by ELISA. Each test group was comprised of six mice. Group of mice injected with the vehicle alone was used as negative control.

In data set [6] the test system is acute colon inflammation induced by 5% DSS. Nature of the data set: DSS (5%) acute colon inflammation mouse model, therapeutic experiment. It counts as in vivo. The text has this:
To assess the in vivo efficacy for preventive and therapeutic activities of these compounds on IBD, two experiments were designed and tested using the dextran sulfate sodium (DSS) experimental mouse model for human IBD.
For the therapeutic experiment a further experiment was done to test different doses of 9A on severe, acute intestinal inflammation in mice induced by a high dose of DSS (5%). In this experiment, drug treatment started from day 3 post DSS induction when disease symptom was established. 9A (200 mg/kg or 100 mg/kg) was administered through oral […] once daily and a commercial drug, sulfasalazine (SASP, 100 mg/kg/day) was used as positive control. Experiment was terminated at day 7 and the efficacy was assessed.

[7] abbreviates: Homo sapiens, PBMC, PHA-stimulated, read-out: IC50 against human PBMC proliferation.
[8] abbreviates: Homo sapiens, PBMC, PHA-stimulated, read-out: IC50 against human PBMC proliferation (unit inferred).

Where “and” joins values, the source holds several entries; their conditions need not be identical. Equal values may be shown once. Read-outs that look alike come from different tables or passages of the source.

As to `C=C1/C(=C\C=C2/CCC[C@]3(C)[C@@H]([C@H](C)CCCC(C)(C)O)CC[C@@H]23)C[C@@H](O)C[C@@H]1O` [Calcitriol, reference compound], the “% edema inhibition” value in data set [1] was 31% and 31.2%.
Usually melting point stands for the temperature, or range, at which the solid turns liquid. In the case of `COc1cc(/C=C/c2ccccc2)cc(OC)c1C(C)C` [Compound 8A, 3,5-Dimethoxy-4-isopropyl-trans-stilbene], the melting point was in the range of 64 to 66 °C.
Consider `CCCc1c(O)cc(C=Cc2ccc(O)cc2)cc1O` [Compound 13B, 5-[2-(4-Hydroxyphenyl)ethenyl]-2-1-propyl-1,3-benzenediol], for which the “potency in inhibiting PBMC proliferation relative to resveratrol” value in data set [2] came out at 20 times. Moreover, the IC50 is 2.97 µM in data set [2] (setting [7]), 2.97 µM in data set [2] (setting [8]), 4.3 µM in data set [3] and 2.55 µM in data set [4]. For the same compound, in data set [3], the “potency on keratinocyte proliferation relative to resveratrol” value is listed as “more than 10 times”. Also, the “potency in inhibiting IFN-γ production relative to resveratrol” value in data set [4] is recorded as “more than 15 times”.
The compound `COc1cc(/C=C/c2ccccc2)cc(OC)c1Br` [Compound 14A, 3,5-Dimethoxy-4-bromo-trans-stilbene] came in with a melting point of 149 to 152 °C.
Turning to `CCc1c(OC)cc(/C=C/c2ccccc2)cc1OC` [Compound 15A-a, 3,5-Dimethoxy-4-ethyl-trans-stilbene], the melting point lay in the range of 70 to 73 °C.
The compound `CCCCCCCCCCCCCCc1c(OC)cc(/C=C/c2ccccc2)cc1OC` [Compound 15A-b, 3,5-Dimethoxy-4-myristyl-trans-stilbene] had a melting point of 68 to 70 °C.
`CCc1c(O)cc(/C=C/c2ccccc2)cc1O` [Compound 16A-a, 3,5-Dihydroxy-4-ethyl-trans-stilbene] gave a melting point of 143 to 146 °C.
In turn, `CCCCCCCCCCCCCCc1c(O)cc(/C=C/c2ccccc2)cc1O` [Compound 16A-b, 3,5-Dihydroxy-4-myristyl-trans-stilbene] registered a melting point of 125 to 128 °C.
`CCCc1c(O)cc(C=Cc2ccccc2F)cc1O` [Compound 37B, 5-[2-(2-Fluorophenyl)ethenyl]-2-1-propyl-1,3-benzenediol]: the IC50 worked out at 5.62 µM in data set [2] (setting [7]) and 3.8 µM in data set [4]. Also, the “TNF-α levels in mice blood induced by LPS” value in data set [5] (P<0.05) was “decreased significantly”. The TNF-α in data set [5] is 638.9 ± 273.0 pg/mL.
In the case of `CC(C)c1c(O)cc(C=Cc2cccc(F)c2)cc1O` [Compound 38B, 5-[2-(3-Fluorophenyl)ethenyl]-2-1-propylphenyl-1,3-diol], the IC50 in data set [2] (PHA-stimulated, read-out: IC50 against human PBMC proliferation) was 9.91 µM; in data set [4], 4.29 µM.
Regarding `C[C@@H]1C[C@H]2[C@@H]3CCC4=CC(=O)C=C[C@]4(C)[C@@]3(F)[C@@H](O)C[C@]2(C)[C@@]1(O)C(=O)CO` [Dexamethasone, dexamethasone, reference compound], the TNF-α in data set [5] was found to be 281.3 ± 67.2 pg/mL.
In the case of `Oc1ccc(C=Cc2cc(O)cc(O)c2)cc1` [Resveratrol, resveratrol, reference compound], the IC50 in data set [2] (setting [7]) was more than 50 µM; in data set [2] (setting [8]), more than 50 µM; in data set [3], more than 50 µM; in data set [4], 39.2 µM. The compound further came in with an IC50 against human PBMC proliferation in data set [2] (PHA-stimulated, 50 the highest concentration tested) of more than 50 µM.
In data set [6] (100 mg/kg oral daily, day seven, mean ± SEM, n = 9, 1 = normal, 2 = bloody stool, 4 = gross bleeding), `O=C(O)c1cc(/N=N/c2ccc(S(=O)(=O)Nc3ccccn3)cc2)ccc1O` [SASP, sulfasalazine, reference compound] came in with a Bleeding score of 3.6 ± 0.24. For the same compound, the Diarrheal score in data set [6] (100 mg/kg oral daily, day seven, mean ± SEM, n = 9, 1 = normal, 2 = loose stools, 4 = diarrhea) is 2.8 ± 0.49. Further, in data set [6] (5% DSS, treatment from day 3), the “survival rate vs control treatment” value is “significantly higher survival rate”.

Values taken from patent US7868047B2, “Anti-inflammatory and psoriasis treatment and protein kinase inhibition by hydroxy stilbenes and novel stilbene derivatives and analogues” (Welichem Biotech Inc., priority 1999, dated 2011).
